Assay results: the NIST ThermoML archive (doi:10.1016/j.jct.2012.08.030)

How the values were obtained:
[1] = refractive index (Na D-line) (dimensionless); xn = mol fraction of the nth substance listed; conditions: 101.3 kPa, Liquid, Standard Abbe refractometry
[2] = xn = mol fraction of the nth substance listed; conditions: 101.3 kPa, Liquid; for speed of sound: Sing-around technique in a fixed-path interferometer; for mass density: Vibrating tube method

CCCCn1cc[n+](C)c1.COS(=O)(=O)[O-] [1-butyl-3-methylimidazolium methyl sulfate] + CO
Conditions | mass density, [2] [kg/m3] | refractive index, [1] | speed of sound, [2] [m/s]
298.15 K, x1 = 0.0422 | 871.193 | 1.35708 | 1191.8
298.15 K, x1 = 0.094 | 942.4 | 1.38271 | 1273.9
298.15 K, x1 = 0.1857 | 1027.84 | 1.41321 | 1384.7
298.15 K, x1 = 0.2858 | 1084.79 | 1.43348 | 1464
298.15 K, x1 = 0.3729 | 1118.3 | 1.44537 | 1512.2
298.15 K, x1 = 0.4772 | 1146.38 | 1.45531 | 1553.5
298.15 K, x1 = 0.5769 | 1166.12 | 1.46226 | 1583.1
298.15 K, x1 = 0.6775 | 1181.29 | 1.46761 | 1606.1
298.15 K, x1 = 0.7947 | 1194.94 | 1.47248 | 1627
298.15 K, x1 = 0.8923 | 1204.14 | 1.47576 | 1641.7
298.15 K, x1 = 0.9526 | 1208.98 | 1.47744 | 1649.4
298.15 K, x1 = 1 | 1212.06 | 1.47824 | 1654.6
303.15 K, x1 = 0.0422 | 866.765 | 1.35523 | 1176.5
303.15 K, x1 = 0.094 | 938.21 | 1.38094 | 1259.6
303.15 K, x1 = 0.1857 | 1023.91 | 1.41156 | 1371.1
303.15 K, x1 = 0.2858 | 1081.04 | 1.43193 | 1450.9
303.15 K, x1 = 0.3729 | 1114.64 | 1.44388 | 1499.3
303.15 K, x1 = 0.4772 | 1142.82 | 1.45387 | 1540.9
303.15 K, x1 = 0.5769 | 1162.61 | 1.46087 | 1570.7
303.15 K, x1 = 0.6775 | 1177.83 | 1.46624 | 1593.8
303.15 K, x1 = 0.7947 | 1191.5 | 1.47111 | 1614.7
303.15 K, x1 = 0.8923 | 1200.73 | 1.4744 | 1629.5
303.15 K, x1 = 0.9526 | 1205.6 | 1.47608 | 1637.2
303.15 K, x1 = 1 | 1208.7 | 1.47704 | 1642.2
308.15 K, x1 = 0.0422 | 862.332 | 1.35331 | 1161.3
308.15 K, x1 = 0.094 | 934.013 | 1.37913 | 1245.1
308.15 K, x1 = 0.1857 | 1019.99 | 1.4099 | 1357.5
308.15 K, x1 = 0.2858 | 1077.29 | 1.43036 | 1437.7
308.15 K, x1 = 0.3729 | 1111 | 1.44239 | 1486.4
308.15 K, x1 = 0.4772 | 1139.26 | 1.45242 | 1528.2
308.15 K, x1 = 0.5769 | 1159.12 | 1.45945 | 1558.2
308.15 K, x1 = 0.6775 | 1174.38 | 1.46485 | 1581.4
308.15 K, x1 = 0.7947 | 1188.07 | 1.46972 | 1602.4
308.15 K, x1 = 0.8923 | 1197.33 | 1.47303 | 1617.2
308.15 K, x1 = 0.9526 | 1202.23 | 1.47475 | 1624.9
308.15 K, x1 = 1 | 1205.35 | 1.47577 | 1630
313.15 K, x1 = 0.0422 | 857.888 | 1.35141 | 1146.2
313.15 K, x1 = 0.094 | 929.815 | 1.37735 | 1230.8
313.15 K, x1 = 0.1857 | 1016.06 | 1.40827 | 1343.9
313.15 K, x1 = 0.2858 | 1073.54 | 1.4288 | 1424.6
313.15 K, x1 = 0.3729 | 1107.37 | 1.4409 | 1473.6
313.15 K, x1 = 0.4772 | 1135.72 | 1.45097 | 1515.7
313.15 K, x1 = 0.5769 | 1155.64 | 1.45804 | 1545.9
313.15 K, x1 = 0.6775 | 1170.94 | 1.46348 | 1569.2
313.15 K, x1 = 0.7947 | 1184.65 | 1.46836 | 1590.3
313.15 K, x1 = 0.8923 | 1193.93 | 1.47168 | 1605.1
313.15 K, x1 = 0.9526 | 1198.87 | 1.47338 | 1612.9
313.15 K, x1 = 1 | 1202.01 | 1.47443 | 1617.9
